Values quoted from earlier work in patent US10104888B2, “Tannin-chitosan composites” (WISCONSIN ALUMNI RESEARCH FOUNDATION, priority 2009, dated 2018).

Conditions: in vivo

For “poly(β-(1→4)-2-amino-2-deoxy-D-glucopyranose) [Chitosan]”, the LD50 is given as over 16000 mg/kg.
